# Where a SMILES comes first, the peptide text is derived from it. Bridges are numbered along the chain shown (N, C = ends). [ ]: non-standard residue; d: D form. The star is where a group is joined. ξ: configuration not given here. Phe(4-COOH) = N[C@@H](Cc1ccc(C(=O)O)cc1)C(=O)O; Bip = N[C@@H](Cc1ccc(-c2ccccc2)cc1)C(=O)O; Phe(3-OMe) = COc1cccc(C[C@H](N)C(=O)O)c1; Phe(3-Me) = Cc1cccc(C[C@H](N)C(=O)O)c1; Val(3-OH) = CC(C)(O)[C@H](N)C(=O)O; aIle = CC[C@@H](C)[C@H](N)C(=O)O; 4Pal = N[C@@H](Cc1ccncc1)C(=O)O; Cha = N[C@@H](CC1CCCCC1)C(=O)O; Cit = NC(=O)NCCC[C@H](N)C(=O)O; Gly(cPr) = N[C@H](C(=O)O)C1CC1; Ile(3ξ) = CCC(C)[C@H](N)C(=O)O; dCha = N[C@H](CC1CCCCC1)C(=O)O; Thr(3ξ) = CC(O)[C@H](N)C(=O)O; Chg = N[C@H](C(=O)O)C1CCCCC1; Carboxymethyl = O=C(O)C*; Orn = NCCC[C@H](N)C(=O)O; Pra = C#CC[C@H](N)C(=O)O; Dab = NCC[C@H](N)C(=O)O; Dap = NC[C@H](N)C(=O)O
# Target: T1, human PD-1 / PD-L1-Ig binding on Jurkat cell line over-expressing human PD-1 (Jurkat-PD-1) (Homo sapiens, UniProt Q15116)
# T1 construct: expressed in transfected cells; host or cells: Jurkat
# T1 sequence (Q15116 25-288): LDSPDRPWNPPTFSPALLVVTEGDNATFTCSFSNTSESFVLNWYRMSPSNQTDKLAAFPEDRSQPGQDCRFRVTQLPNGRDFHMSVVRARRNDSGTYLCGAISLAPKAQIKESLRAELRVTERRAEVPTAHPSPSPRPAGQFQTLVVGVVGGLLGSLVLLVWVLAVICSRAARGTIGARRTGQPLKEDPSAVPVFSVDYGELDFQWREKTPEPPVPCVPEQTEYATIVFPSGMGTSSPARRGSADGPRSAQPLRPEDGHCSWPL
# Test: Jurkat-PD-1 Cell Binding High-Content Screening Assay (CBA)
# Format: cell-based
# Settings: Jurkat HPD1_PDL1 IC50, Jurkat-PD-1 cells, PE-labeled PD-L1-Ig 20 nM final
# Outline: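 Jurkat-hPD-1 cells in DMEM with 10% fetal calf serum receive test compound and are held at 37° C for 2 h. PE-labeled PD-L1-Ig is added at 20 nM final and left for 1 hour. Cells are then fixed and Hoechst-stained, and binding is measured by imaging.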
row,SMILES,IC50
1,CC(C)C[C@H]1NC(=O)[C@H](CCCN)NC(=O)[C@H](C(C)C)NC(=O)[C@H](Cc2ccc(-c3ccccc3)cc2)NC(=O)[C@H](C2CCCCC2)NC(=O)[C@H](Cc2c[nH]c3ccccc23)NC(=O)[C@H](CC(=O)O)NC(=O)[C@H](Cc2ccc(OCC(=O)O)cc2)NC(=O)[C@H](CN)NC(=O)CSC[C@@H](C(=O)N[C@@H](C)C(N)=O)NC(=O)[C@H]([C@@H](C)O)NC(=O)[C@H](C(C)C)NC(=O)[C@H](CC2CCCCC2)NC(=O)[C@H](CCN)NC1=O [Compound 1730] ({CH2CO}-[Dap]Y(Carboxymethyl)DW[Chg][Bip]V[Orn][dL][Dab][Cha]VTCA-NH2; thioether N-14),32.4 nM

# Same assay, conditions: Jurkat-PD-1 cells, PE-labeled PD-L1-Ig 20 nM final; read-out: Jurkat HPD1_PDL1 IC50
row,SMILES,IC50
1,CC[C@H](C)[C@@H]1NC(=O)[C@H](Cc2ccc(-c3ccccc3)cc2)NC(=O)[C@H](C2CC2)NC(=O)[C@H](Cc2c[nH]c3ccccc23)NC(=O)[C@H](CC(=O)O)NC(=O)[C@H](Cc2ccc(OCC(=O)O)cc2)NC(=O)[C@H](CN)NC(=O)CSC[C@@H](C(=O)N[C@@H](C)C(N)=O)NC(=O)[C@H]([C@@H](C)O)NC(=O)[C@H](C(C)C)NC(=O)[C@H](CC2CCCCC2)NC(=O)[C@H](CCN)NC(=O)[C@@H](CC(C)C)NC(=O)[C@H](CCCN)NC1=O [Compound 1724] ({CH2CO}-[Dap]Y(Carboxymethyl)DW[Gly(cPr)][Bip]I[Orn][dL][Dab][Cha]VTCA-NH2; thioether N-14),17.7 nM
2,Cc1cccc(C[C@@H]2NC(=O)[C@H](CC(=O)O)NC(=O)[C@H](Cc3ccc(C(=O)O)cc3)NC(=O)[C@H](C(C)O)NC(=O)CSC[C@@H](C(=O)N[C@@H](CCN)C(N)=O)NC(=O)[C@H](Cc3cnc[nH]3)NC(=O)[C@H](C(C)(C)O)NC(=O)[C@H](CC3CCCCC3)NC(=O)[C@H](CCN)NC(=O)[C@@H](CC(C)C)NC(=O)[C@H](CCCN)NC(=O)[C@H](Cc3ccc(OCC(=O)O)cc3)NC(=O)[C@H](Cc3ccc(-c4ccccc4)cc3)NC(=O)[C@H](Cc3ccc(OCC(=O)O)cc3)NC2=O)c1 (stereo partly drawn) [Compound 2683] ({CH2CO}-[Thr(3ξ)][Phe(4-COOH)]D[Phe(3-Me)]Y(Carboxymethyl)[Bip]Y(Carboxymethyl)[Orn][dL][Dab][Cha][Val(3-OH)]HC[Dab]-NH2; thioether N-14),1.9 nM
3,CC[C@@H](C)[C@@H]1NC(=O)[C@H](Cc2ccc(-c3ccccc3)cc2)NC(=O)[C@H](C(C)C)NC(=O)[C@H](Cc2c[nH]c3ccccc23)NC(=O)[C@H](CC(=O)O)NC(=O)[C@H](Cc2ccc(OCC(=O)O)cc2)NC(=O)[C@H](CN)NC(=O)CSC[C@@H](C(=O)N[C@@H](C)C(N)=O)NC(=O)[C@H]([C@@H](C)O)NC(=O)[C@H](C(C)C)NC(=O)[C@H](CC2CCCCC2)NC(=O)[C@H](CCN)NC(=O)[C@@H](CC2CCCCC2)NC(=O)[C@H](CCCN)NC1=O [Compound 1627] ({CH2CO}-[Dap]Y(Carboxymethyl)DWV[Bip][aIle][Orn][dCha][Dab][Cha]VTCA-NH2; thioether N-14),19.3 nM
4,C#CC[C@H](NC(=O)[C@H](CCN)NC(=O)[C@@H]1CSCC(=O)N[C@@H](CN)C(=O)N[C@@H](Cc2ccc(OCC(=O)O)cc2)C(=O)N[C@@H](CC(=O)O)C(=O)N[C@@H](Cc2cccc(C)c2)C(=O)N[C@@H](C(C)C)C(=O)N[C@@H](Cc2ccc(-c3ccccc3)cc2)C(=O)N[C@@H](CCCNC(N)=O)C(=O)N[C@@H](CCCN)C(=O)N[C@H](CC(C)C)C(=O)N[C@@H](CCN)C(=O)N[C@@H](CC2CCCCC2)C(=O)N[C@@H](C(C)C)C(=O)N[C@@H]([C@@H](C)O)C(=O)N1)C(N)=O [Compound 2261] ({CH2CO}-[Dap]Y(Carboxymethyl)D[Phe(3-Me)]V[Bip][Cit][Orn][dL][Dab][Cha]VTC[Dab][Pra]-NH2; thioether N-14),16 nM
5,CCC(C)[C@@H]1NC(=O)[C@H](Cc2ccc(-c3ccccc3)cc2)NC(=O)[C@H](C(C)C)NC(=O)[C@H](Cc2cccc(C)c2)NC(=O)[C@H](CC(=O)O)NC(=O)[C@H](Cc2ccc(C(=O)O)cc2)NC(=O)[C@H](Cc2ccncc2)NC(=O)CSC[C@@H](C(N)=O)NC(=O)[C@H](CCC(N)=O)NC(=O)[C@H](C(C)C)NC(=O)[C@H](CC2CCCCC2)NC(=O)[C@H](CCN)NC(=O)[C@@H](CC(C)C)NC(=O)[C@H](CCCN)NC1=O (stereo partly drawn) [Compound 2280] ({CH2CO}-[4Pal][Phe(4-COOH)]D[Phe(3-Me)]V[Bip][Ile(3ξ)][Orn][dL][Dab][Cha]VQC-NH2; thioether N-14),40.9 nM

# Next, values leading:
row,IC50,SMILES
1,134 nM,CCC(C)[C@@H]1NC(=O)[C@H](Cc2ccc(-c3ccccc3)cc2)NC(=O)[C@H](C(C)C)NC(=O)[C@H](Cc2cc(C)ccc2OC)NC(=O)[C@H](CC(=O)O)NC(=O)[C@H](Cc2ccc(OCC(=O)O)cc2)NC(=O)[C@H](CN)NC(=O)CSC[C@@H](C(=O)N[C@@H](C)C(N)=O)NC(=O)[C@H]([C@@H](C)O)NC(=O)[C@H](C(C)C)NC(=O)[C@H](CC2CCCCC2)NC(=O)[C@H](CCN)NC(=O)[C@@H](CC(C)C)NC(=O)[C@H](CCCN)NC1=O (stereo partly drawn) [Compound 2249]
2,53.4 nM,CC(C)C[C@H]1NC(=O)[C@H](CCCN)NC(=O)[C@H](CCCNC(N)=O)NC(=O)[C@H](Cc2ccc(-c3ccccc3)cc2)NC(=O)[C@H](C(C)C)NC(=O)[C@H](Cc2c[nH]c3ccccc23)NC(=O)[C@H](CC(=O)O)NC(=O)[C@H](Cc2cccc3ccccc23)NC(=O)[C@H](CN)NC(=O)CSC[C@@H](C(=O)N[C@@H](C)C(N)=O)NC(=O)[C@H]([C@@H](C)O)NC(=O)[C@H](C(C)C)NC(=O)[C@H](CC2CCCCC2)NC(=O)[C@H](CCN)NC1=O [Compound 2115]
3,49.3 nM,CC(C)C[C@H]1NC(=O)[C@H](CCCN)NC(=O)[C@H](CCC(=O)O)NC(=O)[C@H](Cc2ccc(-c3ccccc3)cc2)NC(=O)[C@H](C(C)C)NC(=O)[C@H](CCc2ccccc2)NC(=O)[C@H](CC(=O)O)NC(=O)[C@H](Cc2ccc(OCC(=O)O)cc2)NC(=O)[C@H](CN)NC(=O)CSC[C@@H](C(=O)N[C@@H](C)C(N)=O)NC(=O)[C@H]([C@@H](C)O)NC(=O)[C@H](C(C)C)NC(=O)[C@H](CC2CCCCC2)NC(=O)[C@H](CCN)NC1=O [Compound 2155]
4,35.9 nM,CC(C)[C@@H]1NC(=O)[C@H](Cc2c[nH]c3ccccc23)NC(=O)[C@H](CC(=O)O)NC(=O)[C@H](Cc2ccncc2)NC(=O)[C@H](Cc2ccc(OCC(=O)O)cc2)NC(=O)CSC[C@@H](C(=O)N[C@@H](C)C(N)=O)NC(=O)[C@H]([C@@H](C)O)NC(=O)[C@H](C(C)C)NC(=O)[C@H](CC2CCCCC2)NC(=O)[C@H](CCN)NC(=O)[C@@H](Cc2ccccc2)NC(=O)[C@H](CCCN)NC(=O)[C@H](CCC(=O)O)NC(=O)[C@H](Cc2ccc(-c3ccccc3)cc2)NC1=O [Compound 1434] ({CH2CO}-Y(Carboxymethyl)[4Pal]DWV[Bip]E[Orn][dF][Dab][Cha]VTCA-NH2; thioether N-14)
5,18.3 nM,CC(C)C[C@H]1NC(=O)[C@H](CCCN)NC(=O)[C@H](C(C)C)NC(=O)[C@H](Cc2ccc(-c3ccccc3)cc2)NC(=O)[C@H](C2CC2)NC(=O)[C@H](Cc2c[nH]c3ccccc23)NC(=O)[C@H](CC(=O)O)NC(=O)[C@H](Cc2ccc(OCC(=O)O)cc2)NC(=O)[C@H](CN)NC(=O)CSC[C@@H](C(=O)N[C@@H](C)C(N)=O)NC(=O)[C@H]([C@@H](C)O)NC(=O)[C@H](C(C)C)NC(=O)[C@H](CC2CCCCC2)NC(=O)[C@H](CCN)NC1=O [Compound 1732] ({CH2CO}-[Dap]Y(Carboxymethyl)DW[Gly(cPr)][Bip]V[Orn][dL][Dab][Cha]VTCA-NH2; thioether N-14)
6,16.3 nM,COc1cccc(C[C@@H]2NC(=O)[C@H](CC(=O)O)NC(=O)[C@H](Cc3ccc(O)cc3)NC(=O)[C@H](CC(N)=O)NC(=O)CSC[C@@H](C(=O)N[C@@H](C)C(N)=O)NC(=O)[C@H]([C@@H](C)O)NC(=O)[C@H](C(C)C)NC(=O)[C@H](CC3CCCCC3)NC(=O)[C@H](CCN)NC(=O)[C@@H](CC(C)C)NC(=O)[C@H](CCCN)NC(=O)[C@H](CCC(=O)O)NC(=O)[C@H](Cc3ccc(-c4ccccc4)cc3)NC(=O)[C@H](C(C)C)NC2=O)c1 [Compound 1466] ({CH2CO}-NYD[Phe(3-OMe)]V[Bip]E[Orn][dL][Dab][Cha]VTCA-NH2; thioether N-14)
7,10.9 nM,CC(C)C[C@H]1NC(=O)[C@H](CCCN)NC(=O)[C@H](C(C)C)NC(=O)[C@H](Cc2ccc(-c3ccccc3)cc2)NC(=O)[C@H](C(C)C)NC(=O)[C@H](Cc2c[nH]c3ccccc23)NC(=O)[C@H](CC(=O)O)NC(=O)[C@H](Cc2ccc(O)cc2)NC(=O)[C@H](CC#N)NC(=O)CSC[C@@H](C(=O)N[C@@H](C)C(N)=O)NC(=O)[C@H](C(C)O)NC(=O)[C@H](C(C)C)NC(=O)[C@H](CC2CCCCC2)NC(=O)[C@H](CCN)NC1=O (stereo partly drawn) [Compound 2536]
8,9 nM,CC[C@H](C)[C@@H]1NC(=O)[C@H](CC2CCCCC2)NC(=O)[C@H](CCN)NC(=O)[C@@H](CC(C)C)NC(=O)[C@H](CCCN)NC(=O)[C@H](CCCNC(N)=O)NC(=O)[C@H](Cc2ccc(-c3ccccc3)cc2)NC(=O)[C@H](C(C)C)NC(=O)[C@H](Cc2c[nH]c3ccccc23)NC(=O)[C@H](CC(=O)O)NC(=O)[C@H](Cc2ccc(OCC(=O)O)cc2)NC(=O)[C@H](CN)NC(=O)CSC[C@@H](C(=O)N[C@@H](C)C(N)=O)NC(=O)[C@H]([C@@H](C)O)NC1=O [Compound 1314] ({CH2CO}-[Dap]Y(Carboxymethyl)DWV[Bip][Cit][Orn][dL][Dab][Cha]ITCA-NH2; thioether N-14)
9,3.4 nM,Cc1cccc(C[C@@H]2NC(=O)[C@H](CC(=O)O)NC(=O)[C@H](Cc3ccc(C(=O)O)cc3)NC(=O)[C@H](C(C)O)NC(=O)CSC[C@@H](C(=O)N[C@@H](CCN)C(N)=O)NC(=O)[C@H](CO)NC(=O)[C@H](C(C)(C)O)NC(=O)[C@H](CC3CCCCC3)NC(=O)[C@H](CCN)NC(=O)[C@@H](CC(C)C)NC(=O)[C@H](CCCN)NC(=O)[C@H](Cc3ccc(C(=O)O)cc3)NC(=O)[C@H](Cc3ccc(-c4ccccc4)cc3)NC(=O)[C@H](Cc3ccc(C(=O)O)cc3)NC2=O)c1 (stereo partly drawn) [Compound 2665] ({CH2CO}-[Thr(3ξ)][Phe(4-COOH)]D[Phe(3-Me)][Phe(4-COOH)][Bip][Phe(4-COOH)][Orn][dL][Dab][Cha][Val(3-OH)]SC[Dab]-NH2; thioether N-14)

# Source: patent US20250163104A1, “MACROCYCLIC IMMUNOMODULATORS” (priority 2021, published 2025)
